# Laboratory results: US20220403364A1, “BACTERIA IN 3D POROUS MEDIA” (The Trustees of Princeton University, priority 2019, published 2022)
# Columns and labels:
# [1] = system: bacteria; assay: bacterial growth in the 3D porous medium with antibiotic (light absorbance at 600 nm); format: cell-based; settings: porous media
# Experimental: In some embodiments, changes in growth/motility due to changes in antibiotic or antibiotic concentrations can be quantified. […] Using an 0.81% gel with different concentrations of kanamycin ([…] (ref 504), 317.5 μg/ml (ref 503), 156.25 μg/ml (ref 502), and 78.125 μg/ml (ref 501)), it can be seen that for the two highest concentrations, there was no growth.
# (§1) In both figures, different concentrations of ampicillin were tested 1 μg/ml (ref. 511, 521), 2 μg/ml (ref 512, 522), 3 μg/ml (ref 513, 523), 4 μg/ml (ref 514, 524) and 6 μg/ml (ref 515, 525). For FIG. 6B, the different concentrations were added to bacteria in liquid LB media with no shaking.
# (§2) In FIGS. 6A-6C, the levels of bacteria were monitored by measuring light absorbance at 600 nm. In some embodiments, the cells or media is irradiated with light from a light source positioned above the cells, and a lens or sensor positioned below the cells then captures the light either being emitted from the cells (i.e., the intensity of light being emitted by a marker gene, etc.) or being transmitted through the cells (i.e., not being absorbed). A processor can then be used to quantify the measured light or sensor signals. Further a processor can also be used to convert the measured light or sensor signals into concentrations or bacterial cell counts, via, e.g., calibration curves. Based on that, various antibiotic performance characteristics can be determined—MIC, minimal bactericidal concentration (MBC), etc.
# [2] = system: bacteria; assay: bacterial growth in liquid LB media with no shaking, with antibiotic (light absorbance at 600 nm); format: cell-based
# Experimental: as §1, §2
compound,measurement,setting,value
CC1(C)S[C@@H]2[C@H](NC(=O)[C@H](N)c3ccccc3)C(=O)N2[C@H]1C(=O)O [ampicillin],bacterial growth,"[1]; ampicillin 1 μg/ml, FIG. 6C ref 521",showed growth
same,bacterial growth,"[1]; ampicillin 2 μg/ml, FIG. 6C ref 522",only the 1 μg/ml concentration showed growth
same,bacterial growth,"[1]; ampicillin 3 μg/ml, FIG. 6C ref 523",only the 1 μg/ml concentration showed growth
same,bacterial growth,"[1]; ampicillin 4 μg/ml, FIG. 6C ref 524",only the 1 μg/ml concentration showed growth
same,bacterial growth,"[1]; ampicillin 6 μg/ml, FIG. 6C ref 525",only the 1 μg/ml concentration showed growth
same,bacterial growth,"[2]; ampicillin 1 μg/ml, FIG. 6B ref 511",growth was detected
same,bacterial growth,"[2]; ampicillin 2 μg/ml, FIG. 6B ref 512",growth was detected
same,bacterial growth,"[2]; ampicillin 3 μg/ml, FIG. 6B ref 513",growth was detected
same,bacterial growth,"[2]; ampicillin 4 μg/ml, FIG. 6B ref 514",no growth
same,bacterial growth,"[2]; ampicillin 6 μg/ml, FIG. 6B ref 515",no growth
